According to ChEMBL document CHEMBL5226385, “The Antiangiogenic and Antitumor Effects of Scoparasin B in Non-Small-Cell Lung Cancer” (J Nat Prod, 2023):
Calls of active or inactive are those of the source. No cut-off for these calls is given here.

How the values were obtained:
NCI-H1299 [1] = experiment: Downregulation of VE-Cadherin protein expression in human NCI-H1299 cells at 5 to 15 nM incubated for 24 hrs by western blot analysis; assay type: functional, cell-based; conditions: dose 5-15 nM
NCI-H1299 [2] = experiment: Antitumor activity against human NCI-H1299 cells xenografted in BALB/c nude mouse assessed as tumor volume at 1.5 mg/kg, ip administered every other day for 20 days by vernier caliper analysis (reference value: 1206.46 +/-332.44 mm3); assay type: functional; conditions: time 20 day
HUVEC [3] = experiment: Inhibition of VEGF-A secretion in human HUVEC cells incubated for 36 hrs by ELISA; assay type: functional, cell-based; conditions: dose 5-15 nM
HMEC-1 [4] = experiment: Downregulation of VEGF-A protein expression in human HMEC-1 cells at 5 to 15 nM incubated for 36 hrs by western blot analysis; assay type: functional, cell-based; conditions: dose 5-15 nM
NCI-H1299 [5] = experiment: Inhibition of VEGF-A secretion in human NCI-H1299 cells at 5 to 15 nM incubated for 24 hrs by ELISA; assay type: functional, cell-based; conditions: dose 5-15 nM
HBVP [6] = experiment: Inhibition of cell adhesion in human HBVP cells assessed as reduction in cell adhesion number at 5 to 15 nM pretreated with compound for 24 hrs followed by culturing for 1 hr by crystal violet staining based inverted microscopic analysis; assay type: functional; conditions: dose 5-15 nM, time 25.0 hrs
NCI-H1299 [7] = experiment: Antitumor activity against human NCI-H1299 cells xenografted in BALB/c nude mouse assessed as tumor volume at 0.75 mg/kg, ip administered every other day for 20 days by vernier caliper analysis (reference value: 1206.46 +/-332.44 mm3); assay type: functional; conditions: time 20 day
[8] = target: Vascular endothelial growth factor receptor 2 (Homo sapiens) (UniProt P35968); experiment: Inhibition of VEGF-A-mediated VEGFR2 signaling pathway in human HMEC-1 cells assessed as reduction in mTOR phosphorylation at Ser2448 residue at 5 to 15 nM incubated for 36 hrs by western blot analysis; assay type: cell-based; conditions: dose 5-15 nM
Vascular endothelial growth factor receptor 2 (Homo sapiens), sequence (P35968 whole entry): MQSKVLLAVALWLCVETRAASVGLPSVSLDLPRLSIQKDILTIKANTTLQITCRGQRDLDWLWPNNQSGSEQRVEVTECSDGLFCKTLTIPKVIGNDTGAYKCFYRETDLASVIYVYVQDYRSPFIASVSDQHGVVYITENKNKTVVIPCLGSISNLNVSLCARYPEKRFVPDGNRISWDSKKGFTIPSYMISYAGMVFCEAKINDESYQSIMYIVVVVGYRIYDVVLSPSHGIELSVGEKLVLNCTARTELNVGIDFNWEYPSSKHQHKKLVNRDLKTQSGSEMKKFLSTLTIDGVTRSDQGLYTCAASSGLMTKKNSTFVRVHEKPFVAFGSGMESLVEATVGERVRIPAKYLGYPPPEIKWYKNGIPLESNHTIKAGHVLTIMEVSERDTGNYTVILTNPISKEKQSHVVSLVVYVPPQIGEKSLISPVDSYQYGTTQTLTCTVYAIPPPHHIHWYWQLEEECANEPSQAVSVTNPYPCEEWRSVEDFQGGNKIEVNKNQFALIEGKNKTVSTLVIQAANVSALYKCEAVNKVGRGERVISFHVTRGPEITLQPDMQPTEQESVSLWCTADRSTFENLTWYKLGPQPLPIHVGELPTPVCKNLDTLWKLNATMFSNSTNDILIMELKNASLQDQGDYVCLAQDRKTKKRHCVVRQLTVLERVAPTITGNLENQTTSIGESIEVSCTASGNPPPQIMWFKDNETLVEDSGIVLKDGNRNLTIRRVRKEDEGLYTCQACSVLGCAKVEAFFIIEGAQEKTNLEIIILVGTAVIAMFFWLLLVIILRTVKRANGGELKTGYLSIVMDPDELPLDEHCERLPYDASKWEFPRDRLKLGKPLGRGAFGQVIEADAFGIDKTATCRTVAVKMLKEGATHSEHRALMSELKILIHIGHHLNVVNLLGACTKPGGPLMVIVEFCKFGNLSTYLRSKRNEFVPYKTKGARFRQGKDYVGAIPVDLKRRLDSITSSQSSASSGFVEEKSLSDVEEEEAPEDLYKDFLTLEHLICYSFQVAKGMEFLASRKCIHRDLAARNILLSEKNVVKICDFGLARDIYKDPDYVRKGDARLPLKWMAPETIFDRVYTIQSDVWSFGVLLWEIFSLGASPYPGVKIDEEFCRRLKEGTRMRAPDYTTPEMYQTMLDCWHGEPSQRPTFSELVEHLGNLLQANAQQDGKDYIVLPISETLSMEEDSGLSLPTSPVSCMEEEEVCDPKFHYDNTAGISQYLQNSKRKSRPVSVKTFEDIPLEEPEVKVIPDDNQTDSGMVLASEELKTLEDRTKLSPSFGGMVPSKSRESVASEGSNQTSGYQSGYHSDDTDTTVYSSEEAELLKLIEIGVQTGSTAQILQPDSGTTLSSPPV

[9] = target: Vascular endothelial growth factor receptor 2 (Homo sapiens) (UniProt P35968); experiment: Inhibition of VEGF-A-mediated VEGFR2 signaling pathway in human HUVEC cells assessed as reduction in VEGFR2 phosphorylation at Tyr1175 residue at 5 to 15 nM incubated for 36 hrs by western blot analysis; assay type: cell-based; conditions: dose 5-15 nM
NCI-H1299 [10] = experiment: Upregulation of E-Cadherin mRNA expression in human NCI-H1299 cells at 5 to 15 nM incubated for 24 hrs by qPCR analysis; assay type: functional, cell-based; conditions: dose 5-15 nM
HMEC-1 [11] = experiment: Downregulation of VEGFR2 protein expression in human HMEC-1 cells at 5 to 15 nM incubated for 36 hrs by western blot analysis; assay type: functional, cell-based; conditions: dose 5-15 nM
NCI-H1299 [12] = experiment: Downregulation of MMP9 protein expression in human NCI-H1299 cells at 5 to 15 nM incubated for 24 hrs by western blot analysis; assay type: functional, cell-based; conditions: dose 5-15 nM
Gallus gallus = species: Gallus gallus; experiment: Ex vivo antiangiogenesis activity in chicken embryo chorioallantonic membrane assessed as reduction in microvessel density at 5 to 20 nM measured after 48 hrs by stereomicroscopic analysis; assay type: functional, organism-based; conditions: Chorioallantoic membrane, dose 5-20 nM
NCI-H1299 [13] = experiment: Downregulation of N-Cadherin mRNA expression in human NCI-H1299 cells at 5 to 15 nM incubated for 24 hrs by qPCR analysis; assay type: functional, cell-based; conditions: dose 5-15 nM
HMEC-1 [14] = experiment: Cytotoxicity against human HMEC-1 cells assessed as reduction in cell proliferation upto 25 nM measured after 48 hrs by CCK8 assay; assay type: toxicity, cell-based; conditions: hmec-1, 48 h, 0.025 µM
HUVEC [15] = experiment: Cytotoxicity against human HUVEC cells assessed as reduction in cell proliferation upto 25 nM measured after 48 hrs by CCK8 assay; assay type: toxicity, cell-based; conditions: 0.025 µM
Mus musculus [16] = experiment: Inhibition of tumor angiogenesis in BALB/c nude mouse xenografted with human NCI-H1299 cells assessed as reduction in […] cells in tumor at 1.5 mg/kg, ip administered every other day for 20 days by immunohistochemical analysis; assay type: functional, organism-based; conditions: time 20.0 day
NCI-H1299 [17] = experiment: Downregulation of VE-Cadherin mRNA expression in human NCI-H1299 cells at 5 to 15 nM incubated for 24 hrs by qPCR analysis; assay type: functional, cell-based; conditions: dose 5-15 nM
NCI-H1299 [18] = experiment: Downregulation of N-Cadherin protein expression in human NCI-H1299 cells at 5 to 15 nM incubated for 24 hrs by western blot analysis; assay type: functional, cell-based; conditions: dose 5-15 nM
HUVEC [19] = experiment: Antiangiogenic activity against human HUVEC cells assessed as inhibition of capillary tube-like structure formation at 15 nM incubated for 6 hrs by Matrigel based analysis; assay type: functional; set-up: scale not given: the % may be the effect or the level left
[20] = Toxicity against BALB/c nude mouse xenografted with human NCI-H1299 cells assessed as change in body weight at 0.75 to 1.5 mg/kg, ip administered every other day for 20 days; assay type: organism-based; conditions: in vivo, 480 h, dose 0.75-1.5 mg/kg, time 20 day
[21] = target: Vascular endothelial growth factor receptor 2 (Homo sapiens) (UniProt P35968); experiment: Inhibition of VEGF-A-mediated VEGFR2 signaling pathway in human HUVEC cells assessed as reduction in FAK phosphorylation at Tyr397 residue at 5 to 15 nM incubated for 36 hrs by western blot analysis; assay type: cell-based; conditions: dose 5-15 nM
[22] = target: Vascular endothelial growth factor receptor 2 (Homo sapiens) (UniProt P35968); experiment: Inhibition of VEGF-A-mediated VEGFR2 signaling pathway in human HMEC-1 cells assessed as reduction in FAK phosphorylation at Tyr397 residue at 5 to 15 nM incubated for 36 hrs by western blot analysis; assay type: cell-based; conditions: dose 5-15 nM
NCI-H1299 [23] = experiment: Downregulation of Vimentin protein expression in human NCI-H1299 cells at 5 to 15 nM incubated for 24 hrs by western blot analysis; assay type: functional, cell-based; conditions: dose 5-15 nM
HUVEC [24] = experiment: Downregulation of VEGFR2 protein expression in human HUVEC cells at 5 to 15 nM incubated for 36 hrs by western blot analysis; assay type: functional, cell-based; conditions: dose 5-15 nM
HBVP [25] = experiment: Inhibition of PDGFR-beta protein expression in human HBVP cells at 5 to 15 nM incubated for 24 hrs by western blot analysis; assay type: functional, cell-based; conditions: dose 5-15 nM
HMEC-1 [26] = experiment: Antiangiogenic activity against human HMEC-1 cells assessed as inhibition of capillary tube-like structure formation at 15 nM incubated for 6 hrs by Matrigel based analysis; assay type: functional; set-up: scale not given: the % may be the effect or the level left
HUVEC [27] = experiment: Antiangiogenic activity against human HUVEC cells assessed as inhibition of cell migration measured after 24 hrs by Transwell migration assay; assay type: functional, cell-based; conditions: dose 5-15 nM
HMEC-1 [28] = experiment: Antiangiogenic activity against human HMEC-1 cells assessed as inhibition of cell migration measured after 8 hrs by scratch wound healing assay; assay type: functional, cell-based; conditions: dose 5-15 nM
NCI-H1299 [29] = experiment: Downregulation of MMP9 mRNA expression in human NCI-H1299 cells at 5 to 15 nM incubated for 24 hrs by qPCR analysis; assay type: functional, cell-based; conditions: dose 5-15 nM
[30] = Toxicity against BALB/c nude mouse xenografted with human NCI-H1299 cells assessed as morphological changes in kidneys at 0.75 to 1.5 mg/kg, ip administered every other day for 20 days by Hematoxylin and eosin staining based inverted microscopic analysis; assay type: organism-based; conditions: in vivo, 480 h, dose 0.75-1.5 mg/kg, time 20 day
NCI-H1299 [31] = experiment: Inhibition of vasculogenic-mimicry in human NCI-H1299 cells assessed as inhibition of cell invasion at 5 to 15 nM measured after 24 hrs by Transwell invasion assay; assay type: functional, cell-based; conditions: dose 5-15 nM
HUVEC [32] = experiment: Inhibition of pericyte-mediated angiogenesis in PKH26-labeled human HUVEC cells assessed as reduction in PKH67-labeled HBVP recruitment to newly formed capillary by endothelial cells by measuring reduction in overall vessel coverage for branch points and total tube lengths at 5 to 15 nM pericytes pretreated with compound for 48 hrs followed by incubation with endothelial cells and measured within 3 hrs by Matrigel-based fluorescence analysis; assay type: functional, cell-based; conditions: dose 5-15 nM, time 51.0 hrs
Mus musculus [33] = experiment: Inhibition of tumor angiogenesis in BALB/c nude mouse xenografted with human NCI-H1299 cells assessed as reduction in microvessel density of the tumor at 0.75 to 1.5 mg/kg, ip administered every other day for 20 days by CD31 staining based immunohistochemical analysis; assay type: functional, organism-based; conditions: dose 0.75-1.5 mg/kg, time 20.0 day

## COc1ccc(C[C@@H]2NC(=O)[C@@]34OC(=O)O/C=C/[C@@](C)(O)C(=O)[C@@H](C)C/C=C/[C@H]3[C@H](O)[C@](C)(O)[C@@H](C)[C@@H]24)cc1 [SCOPARASIN B]
NCI-H1299 [1]
  inhibition: Active
NCI-H1299 [2]
  Activity: 190.09 mm3
HUVEC [3]
  inhibition: Dose-Dependent Effect
HMEC-1 [4]
  inhibition: Active
NCI-H1299 [5]
  inhibition: Active
HBVP [6]
  inhibition: Active
NCI-H1299 [7]
  Activity: 559.86 mm3
[8]
  inhibition: Active
[9]
  inhibition: Active
NCI-H1299 [10]
  Activity: Active
HMEC-1 [11]
  inhibition: inactive
NCI-H1299 [12]
  inhibition: Active
Gallus gallus
  Activity: Active
NCI-H1299 [13]
  inhibition: Active
HMEC-1 [14]
  Activity: Non-Toxic
HUVEC [15]
  Activity: Non-Toxic
Mus musculus [16]
  inhibition: Active
NCI-H1299 [17]
  inhibition: Active
NCI-H1299 [18]
  inhibition: Active
HUVEC [19]
  Activity: 100%
[20]
  Activity: Non-Toxic
[21]
  inhibition: Active
[22]
  inhibition: Active
NCI-H1299 [23]
  inhibition: Active
HUVEC [24]
  inhibition: inactive
HBVP [25]
  inhibition: inactive
HMEC-1 [26]
  Activity: 100%
HUVEC [27]
  Activity: Dose-Dependent Effect
HMEC-1 [28]
  Activity: Dose-Dependent Effect
NCI-H1299 [29]
  inhibition: Active
[30]
  Activity: Non-Toxic
NCI-H1299 [31]
  inhibition: Active
HUVEC [32]
  inhibition: Active
Mus musculus [33]
  inhibition: Active
